From article PMC9476189 (ACS Omega, 2022) come the findings set out here.

In one assay the target is α-glucosidase (Saccharomyces cerevisiae, UniProt P53341). Nature of the assay: α-Glucosidase assay. The following applies: for α-glucosidase inhibition, inhibition (%) at 0.5 mM / IC50: mean ± SEM, triplicate; for IC50: read-out: α-glucosidase inhibition, IC50. It is filed as biochemical.
For the next assay, the target named is T1, LOX (Glycine max, UniProt P08170).
T1 sequence (P08170 1-839): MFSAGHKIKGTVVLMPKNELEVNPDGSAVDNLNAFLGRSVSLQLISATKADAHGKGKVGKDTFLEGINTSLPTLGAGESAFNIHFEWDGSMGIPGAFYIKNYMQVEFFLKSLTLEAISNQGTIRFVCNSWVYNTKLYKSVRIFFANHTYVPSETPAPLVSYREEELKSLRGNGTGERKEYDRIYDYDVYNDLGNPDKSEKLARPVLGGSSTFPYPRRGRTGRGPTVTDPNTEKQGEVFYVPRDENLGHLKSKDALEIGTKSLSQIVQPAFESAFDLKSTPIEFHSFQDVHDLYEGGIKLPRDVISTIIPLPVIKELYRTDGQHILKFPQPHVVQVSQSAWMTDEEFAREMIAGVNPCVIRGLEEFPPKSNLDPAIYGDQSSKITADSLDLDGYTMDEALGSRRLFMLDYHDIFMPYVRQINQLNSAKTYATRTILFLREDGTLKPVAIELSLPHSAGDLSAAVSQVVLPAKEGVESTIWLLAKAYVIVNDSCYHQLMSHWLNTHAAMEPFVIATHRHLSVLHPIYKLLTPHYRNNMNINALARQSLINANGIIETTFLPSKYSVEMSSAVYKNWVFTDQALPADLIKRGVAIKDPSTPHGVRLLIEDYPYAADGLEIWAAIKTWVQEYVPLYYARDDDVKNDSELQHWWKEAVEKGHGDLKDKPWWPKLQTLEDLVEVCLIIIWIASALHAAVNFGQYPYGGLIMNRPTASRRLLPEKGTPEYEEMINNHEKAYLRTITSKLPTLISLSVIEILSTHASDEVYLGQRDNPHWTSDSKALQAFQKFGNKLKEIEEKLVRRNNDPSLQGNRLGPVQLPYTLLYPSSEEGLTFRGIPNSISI
Nature of the assay: Lipoxygenase assay. Format: biochemical. The following applies: mean ± SEM, triplicate; for IC50: read-out: LOX inhibition, IC50.

A further assay deals with AChE (Homo sapiens, UniProt P22303). The following applies: for AChE inhibition, inhibition (%) at 0.5 mM / IC50: mean ± SEM, triplicate; for IC50: read-out: AChE inhibition, IC50.
Chain of AChE (P22303 32-614): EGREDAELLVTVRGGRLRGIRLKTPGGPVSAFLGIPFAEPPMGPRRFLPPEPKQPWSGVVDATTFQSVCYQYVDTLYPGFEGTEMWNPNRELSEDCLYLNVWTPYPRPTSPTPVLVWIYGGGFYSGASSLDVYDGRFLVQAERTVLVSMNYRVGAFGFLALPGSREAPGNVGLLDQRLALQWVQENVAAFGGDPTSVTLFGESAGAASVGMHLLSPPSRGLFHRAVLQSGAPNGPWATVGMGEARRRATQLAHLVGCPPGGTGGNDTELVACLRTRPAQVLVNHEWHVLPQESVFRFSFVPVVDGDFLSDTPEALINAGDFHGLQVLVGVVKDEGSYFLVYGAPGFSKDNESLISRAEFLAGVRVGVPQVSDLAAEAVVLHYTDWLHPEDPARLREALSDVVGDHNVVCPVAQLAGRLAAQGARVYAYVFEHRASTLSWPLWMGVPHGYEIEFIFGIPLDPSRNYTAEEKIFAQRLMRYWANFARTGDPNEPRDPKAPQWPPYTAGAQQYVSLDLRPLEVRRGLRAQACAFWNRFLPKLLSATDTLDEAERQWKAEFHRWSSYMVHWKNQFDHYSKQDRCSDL
The target of the next assay is urease (Canavalia ensiformis, UniProt P07374). The following applies: mean ± SEM, triplicate; for IC50: read-out: urease inhibition, IC50.
Chain of urease (P07374 whole entry, looked up): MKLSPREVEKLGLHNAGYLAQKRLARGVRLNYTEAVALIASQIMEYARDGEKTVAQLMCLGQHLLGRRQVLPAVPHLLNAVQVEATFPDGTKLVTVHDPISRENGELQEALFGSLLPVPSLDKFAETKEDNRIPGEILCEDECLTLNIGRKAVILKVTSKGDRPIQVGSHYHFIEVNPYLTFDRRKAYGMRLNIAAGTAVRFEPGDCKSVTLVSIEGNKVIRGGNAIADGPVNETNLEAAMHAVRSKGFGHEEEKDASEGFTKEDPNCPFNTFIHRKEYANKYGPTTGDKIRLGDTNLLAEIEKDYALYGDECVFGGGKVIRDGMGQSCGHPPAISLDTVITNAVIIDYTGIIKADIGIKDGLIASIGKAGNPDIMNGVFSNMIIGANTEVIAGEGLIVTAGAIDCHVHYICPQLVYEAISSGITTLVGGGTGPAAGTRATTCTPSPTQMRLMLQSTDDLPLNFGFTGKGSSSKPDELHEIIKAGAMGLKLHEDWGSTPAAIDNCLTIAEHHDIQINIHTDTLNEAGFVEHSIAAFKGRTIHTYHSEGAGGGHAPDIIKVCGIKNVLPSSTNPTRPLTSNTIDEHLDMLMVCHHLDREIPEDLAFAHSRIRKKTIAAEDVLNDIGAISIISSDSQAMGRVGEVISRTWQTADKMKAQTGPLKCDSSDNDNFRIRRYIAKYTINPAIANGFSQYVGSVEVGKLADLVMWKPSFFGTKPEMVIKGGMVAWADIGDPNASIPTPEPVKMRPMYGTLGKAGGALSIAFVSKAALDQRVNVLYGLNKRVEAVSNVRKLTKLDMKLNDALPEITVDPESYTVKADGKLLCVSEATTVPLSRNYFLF
A further assay has as its target BChE (Homo sapiens, UniProt P06276). The following applies: mean ± SEM, triplicate; for IC50: read-out: BChE inhibition, IC50.

Chain of α-glucosidase (P53341 whole entry): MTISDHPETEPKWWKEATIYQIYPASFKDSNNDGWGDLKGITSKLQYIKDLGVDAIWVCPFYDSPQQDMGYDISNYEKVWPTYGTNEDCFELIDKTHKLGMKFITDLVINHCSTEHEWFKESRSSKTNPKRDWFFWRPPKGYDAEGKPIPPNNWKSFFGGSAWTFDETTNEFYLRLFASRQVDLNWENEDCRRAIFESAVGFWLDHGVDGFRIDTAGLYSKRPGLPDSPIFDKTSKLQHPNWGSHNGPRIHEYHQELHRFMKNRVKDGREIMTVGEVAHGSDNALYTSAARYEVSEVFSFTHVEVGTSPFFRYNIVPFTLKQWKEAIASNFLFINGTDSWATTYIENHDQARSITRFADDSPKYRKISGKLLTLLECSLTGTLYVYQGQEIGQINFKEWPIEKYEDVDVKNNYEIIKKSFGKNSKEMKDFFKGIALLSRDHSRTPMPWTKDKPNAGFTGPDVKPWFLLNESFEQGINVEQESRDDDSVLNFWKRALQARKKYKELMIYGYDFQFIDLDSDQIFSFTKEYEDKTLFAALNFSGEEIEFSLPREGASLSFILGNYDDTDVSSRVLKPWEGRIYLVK
Chain of BChE (P06276 29-602, species assumed): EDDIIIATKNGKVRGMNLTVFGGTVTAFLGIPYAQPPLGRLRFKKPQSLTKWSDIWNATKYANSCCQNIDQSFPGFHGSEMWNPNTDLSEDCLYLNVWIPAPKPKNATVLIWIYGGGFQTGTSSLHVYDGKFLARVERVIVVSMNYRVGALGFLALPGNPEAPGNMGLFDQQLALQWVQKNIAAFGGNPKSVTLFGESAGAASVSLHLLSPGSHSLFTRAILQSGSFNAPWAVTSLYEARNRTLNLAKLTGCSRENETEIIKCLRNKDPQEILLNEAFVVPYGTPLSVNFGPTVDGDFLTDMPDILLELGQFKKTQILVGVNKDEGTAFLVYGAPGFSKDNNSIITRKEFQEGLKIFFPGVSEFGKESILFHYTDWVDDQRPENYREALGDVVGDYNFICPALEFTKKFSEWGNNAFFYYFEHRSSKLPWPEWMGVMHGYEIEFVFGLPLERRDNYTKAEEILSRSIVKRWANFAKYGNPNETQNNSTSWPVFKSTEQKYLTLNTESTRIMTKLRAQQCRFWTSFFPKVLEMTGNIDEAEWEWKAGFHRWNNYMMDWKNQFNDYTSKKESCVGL

Usually IC50 stands for the concentration at which inhibition is half-maximal. In the case of `Cc1ccc(S(=O)(=O)N2CCC(c3nnc(SCC(=O)NC4CCCCC4)n3C)CC2)cc1` [Compound 12a, 1-(4-toluenesulfonyl)-4-[3-(N-cyclohexyl-2-ethanamoylthio)-4-methyl-4H-1,2,4-triazol-5-yl] piperidine], at α-glucosidase, the “α-glucosidase inhibition, inhibition (%) at 0.5 mM” value is reported as 87.25 ± 1.65% and the IC50 turned out to be 135 ± 1.39 µM. In addition, the “LOX inhibition, inhibition (%) at 0.25 mM” value on LOX is 39.47 ± 0.82%. At AChE, the “AChE inhibition, inhibition (%) at 0.5 mM” value is recorded as 52.37 ± 0.78% and the IC50 is 476.3 ± 0.57 µM. In addition, the “urease inhibition, inhibition (%) at 0.25 mM” value on urease was 25.34 ± 1.42%. The “BChE inhibition, inhibition (%) at 0.5 mM” value at BChE is on record as 21.93 ± 0.62%.
For `Cc1ccc(S(=O)(=O)N2CCC(c3nnc(SCC(=O)Nc4ccccc4)n3C)CC2)cc1` [Compound 12b, 1-(4-toluenesulfonyl)-4-[3-(N-phenyl-2-ethanamoylthio)-4-methyl-4H-1,2,4-triazol-5-yl] piperidine], at α-glucosidase, the “α-glucosidase inhibition, inhibition (%) at 0.5 mM” value stood at 76.23 ± 1.58% and the 50% inhibitory concentration (IC50) was 264.3 ± 1.24 µM. Moreover, the “LOX inhibition, inhibition (%) at 0.25 mM” value at LOX came out at 35.25 ± 0.42%. On AChE, the “activity against AChE enzyme (in words)” value is “excellent activity”; the “AChE inhibition, inhibition (%) at 0.5 mM” value is listed as 89.15 ± 0.68%; the concentration for half-maximal inhibition (IC50) was 85.46 ± 0.45 µM. At urease, the “urease inhibition, inhibition (%) at 0.25 mM” value is 31.23 ± 1.42%. Also, at BChE, the “BChE inhibition, inhibition (%) at 0.5 mM” value turned out to be 63.42 ± 0.75% and the 50% inhibitory concentration (IC50) stood at 279.4 ± 0.59 µM.
As to `Cc1ccc(S(=O)(=O)N2CCC(c3nnc(SCC(=O)Nc4ccccc4C)n3C)CC2)cc1` [Compound 12c, 1-(4-toluenesulfonyl)-4-{3-[N-(2-methylphenyl)-2-ethanamoylthio]-4-methyl-4H-1,2,4-triazol-5-yl} piperidine], at α-glucosidase, the “α-glucosidase inhibition, inhibition (%) at 0.5 mM” value was found to be 72.45 ± 1.75% and the concentration for half-maximal inhibition (IC50) came to 327.8 ± 1.57 µM. Also, the “LOX inhibition, inhibition (%) at 0.25 mM” value at LOX came out at 36.47 ± 0.76%. In addition, on AChE, the “AChE inhibition, inhibition (%) at 0.5 mM” value amounted to 82.36 ± 0.67% and the concentration for half-maximal inhibition (IC50) came out at 134.6 ± 0.53 µM. Besides, at urease, the “urease inhibition, inhibition (%) at 0.25 mM” value stood at 75.45 ± 1.72% and the IC50 came out at 163.8 ± 1.45 µM. In addition, the “BChE inhibition, inhibition (%) at 0.5 mM” value on BChE is 37.83 ± 0.42%.
For `Cc1ccc(S(=O)(=O)N2CCC(c3nnc(SCC(=O)Nc4cccc(C)c4)n3C)CC2)cc1` [Compound 12d, 1-(4-Toluenesulfonyl)-4-{3-[N-(3-methylphenyl)-2-ethanamoylthio]-4-methyl-4H-1,2,4-triazol-5-yl}{Kumari, 2021 #63} piperidine], at α-glucosidase, the “activity against α-glucosidase enzyme (in words)” value is “excellent activity”; the “α-glucosidase inhibition, inhibition (%) at 0.5 mM” value is recorded as 91.52 ± 1.43%; the half-maximal inhibitory concentration (IC50) came out at 36.7 ± 1.24 µM. At LOX, the “LOX inhibition, inhibition (%) at 0.25 mM” value is reported as 68.34 ± 0.82% and the IC50 is 32.6 ± 0.42 µM. On AChE, the “activity against AChE enzyme (in words)” value is given as “excellent activity”; the “AChE inhibition, inhibition (%) at 0.5 mM” value is 98.78 ± 0.78%; the 50% inhibitory concentration (IC50) came out at 0.73 ± 0.54 µM. Moreover, on urease, the “urease inhibition, inhibition (%) at 0.25 mM” value is reported as 98.22 ± 1.65% and the IC50 came out at 19.4 ± 1.28 µM. The “BChE inhibition, inhibition (%) at 0.5 mM” value on BChE was determined as 95.29 ± 0.74%.
Consider `Cc1ccc(NC(=O)CSc2nnc(C3CCN(S(=O)(=O)c4ccc(C)cc4)CC3)n2C)cc1` [Compound 12e, 1-(4-toluenesulfonyl)-4-{3-[N-(4-methylphenyl)-2-ethanamoylthio]-4-methyl-4H-1,2,4-triazol-5-yl} piperidine], for which, on α-glucosidase, the “α-glucosidase inhibition, inhibition (%) at 0.5 mM” value is 72.75 ± 1.58% and the concentration for half-maximal inhibition (IC50) turned out to be 314.6 ± 1.24 µM. The “LOX inhibition, inhibition (%) at 0.25 mM” value on LOX came to 48.36 ± 0.43%. At AChE, the “activity against AChE enzyme (in words)” value is reported as “excellent activity”; the “AChE inhibition, inhibition (%) at 0.5 mM” value was determined as 87.43 ± 0.77%; the half-inhibitory concentration (IC50) turned out to be 97.86 ± 0.65 µM. In addition, the “urease inhibition, inhibition (%) at 0.25 mM” value on urease is 39.26 ± 1.43%. At BChE, the “BChE inhibition, inhibition (%) at 0.5 mM” value stood at 96.47 ± 0.76% and the half-maximal inhibitory concentration (IC50) is 0.053 µM.
Take `CCc1ccccc1NC(=O)CSc1nnc(C2CCN(S(=O)(=O)c3ccc(C)cc3)CC2)n1C` [Compound 12f, 1-(4-toluenesulfonyl)-4-{3-[N-(2-ethylphenyl)-2-ethanamoylthio]-4-methyl-4H-1,2,4-triazol-5-yl} piperidine]: at α-glucosidase, the “α-glucosidase inhibition, inhibition (%) at 0.5 mM” value is recorded as 74.95 ± 1.74% and the IC50 stood at 275.8 ± 1.37 µM. Further, on LOX, the “LOX inhibition, inhibition (%) at 0.25 mM” value was 62.38 ± 0.75% and the IC50 turned out to be 96.32 ± 0.37 µM. The “AChE inhibition, inhibition (%) at 0.5 mM” value at AChE was 39.62 ± 0.55%. In addition, the “urease inhibition, inhibition (%) at 0.25 mM” value on urease stood at 36.35 ± 1.78%. Besides, the “BChE inhibition, inhibition (%) at 0.5 mM” value at BChE is 39.78 ± 0.57%.
For `COc1ccccc1NC(=O)CSc1nnc(C2CCN(S(=O)(=O)c3ccc(C)cc3)CC2)n1C` [Compound 12g, 1-(4-toluenesulfonyl)-4-{3-[N-(2-methoxyphenyl)-2-ethanamoylthio]-4-methyl-4H-1,2,4-triazol-5-yl} piperidine], at α-glucosidase, the “α-glucosidase inhibition, inhibition (%) at 0.5 mM” value was 71.45 ± 1.73% and the IC50 amounted to 267.4 ± 1.52 µM. The “LOX inhibition, inhibition (%) at 0.25 mM” value at LOX turned out to be 41.55 ± 0.51%. Further, at AChE, the “AChE inhibition, inhibition (%) at 0.5 mM” value is on record as 79.24 ± 0.89% and the concentration for half-maximal inhibition (IC50) was 149.8 ± 0.67 µM. In addition, the “urease inhibition, inhibition (%) at 0.25 mM” value at urease came out at 42.87 ± 1.51%. Moreover, the “BChE inhibition, inhibition (%) at 0.5 mM” value on BChE is given as 24.72 ± 0.56%.
Regarding `CCOc1ccc(NC(=O)CSc2nnc(C3CCN(S(=O)(=O)c4ccc(C)cc4)CC3)n2C)cc1` [Compound 12h, 1-(4-toluenesulfonyl)-4-{3-[N-(4-ethoxyphenyl)-2-ethanamoylthio]-4-methyl-4H-1,2,4-triazol-5-yl} piperidine], at α-glucosidase, the “α-glucosidase inhibition, inhibition (%) at 0.5 mM” value worked out at 73.12 ± 1.58% and the 50% inhibitory concentration (IC50) stood at 286.6 ± 1.25 µM. On LOX, the “LOX inhibition, inhibition (%) at 0.25 mM” value stood at 63.53 ± 0.52% and the IC50 amounted to 92.45 ± 0.26 µM. Also, the “AChE inhibition, inhibition (%) at 0.5 mM” value on AChE is listed as 37.41 ± 0.62%. Besides, the “urease inhibition, inhibition (%) at 0.25 mM” value at urease came to 42.63 ± 1.52%. Also, the “BChE inhibition, inhibition (%) at 0.5 mM” value at BChE is given as 16.51 ± 0.35%.
Take `Cc1ccc(S(=O)(=O)N2CCC(c3nnc(SCC(=O)Nc4cccc(C)c4C)n3C)CC2)cc1` [Compound 12i, 1-(4-toluenesulfonyl)-4-{3-[N-(2,3-dimethylphenyl)-2-ethanamoylthio]-4-methyl-4H-1,2,4-triazol-5-yl} piperidine]: the “α-glucosidase inhibition, inhibition (%) at 0.5 mM” value at α-glucosidase came out at 31.53 ± 1.37%. Moreover, the “LOX inhibition, inhibition (%) at 0.25 mM” value at LOX worked out at 24.12 ± 0.59%. Further, at AChE, the “AChE inhibition, inhibition (%) at 0.5 mM” value worked out at 82.51 ± 0.85% and the IC50 came to 117.4 ± 0.64 µM. Also, at urease, the “urease inhibition, inhibition (%) at 0.25 mM” value amounted to 75.82 ± 1.79% and the concentration for half-maximal inhibition (IC50) stood at 143 ± 1.52 µM. Moreover, on BChE, the “BChE inhibition, inhibition (%) at 0.5 mM” value is 36.47 ± 0.75%.
As for `Cc1ccc(S(=O)(=O)N2CCC(c3nnc(SCC(=O)Nc4ccc(C)cc4C)n3C)CC2)cc1` [Compound 12j, 1-(4-toluenesulfonyl)-4-{3-[N-(2,4-dimethylphenyl)-2-ethanamoylthio]-4-methyl-4H-1,2,4-triazol-5-yl} piperidine], at α-glucosidase, the “α-glucosidase inhibition, inhibition (%) at 0.5 mM” value is 72.25 ± 1.85% and the 50% inhibitory concentration (IC50) is 365.9 ± 1.42 µM. On LOX, the “LOX inhibition, inhibition (%) at 0.25 mM” value turned out to be 23.54 ± 0.85%. In addition, at AChE, the “activity against AChE enzyme (in words)” value is on record as “excellent activity”; the “AChE inhibition, inhibition (%) at 0.5 mM” value is given as 88.36 ± 0.79%; the half-inhibitory concentration (IC50) was found to be 94.63 ± 0.57 µM. At urease, the “urease inhibition, inhibition (%) at 0.25 mM” value was 73.52 ± 1.65% and the IC50 is 167.2 ± 1.34 µM. Besides, the “BChE inhibition, inhibition (%) at 0.5 mM” value at BChE is 37.62 ± 0.87%.
In the case of `Cc1ccc(S(=O)(=O)N2CCC(c3nnc(SCC(=O)Nc4cc(C)ccc4C)n3C)CC2)cc1` [Compound 12k, 1-(4-toluenesulfonyl)-4-{3-[N-(2,5-dimethylphenyl)-2-ethanamoylthio]-4-methyl-4H-1,2,4-triazol-5-yl} piperidine], on α-glucosidase, the “α-glucosidase inhibition, inhibition (%) at 0.5 mM” value is 71.16 ± 1.64% and the half-inhibitory concentration (IC50) was found to be 385.6 ± 1.32 µM. In addition, the “LOX inhibition, inhibition (%) at 0.25 mM” value at LOX came out at 29.45 ± 0.72%. On AChE, the “AChE inhibition, inhibition (%) at 0.5 mM” value was 65.27 ± 0.74% and the IC50 was 212.9 ± 0.59 µM. Besides, at urease, the “urease inhibition, inhibition (%) at 0.25 mM” value stood at 76.15 ± 1.52% and the half-maximal inhibitory concentration (IC50) was 165.4 ± 1.27 µM. On BChE, the “BChE inhibition, inhibition (%) at 0.5 mM” value came out at 49.23 ± 0.94%.
